# Test results from ChEMBL document CHEMBL5463729, “Data for DCP probe BAY 1753011” (2023).
# Experiments:
# Conditions in all cases: Compound concentration 10.0 uM
# [1] = molecular target: T1, Muscarinic acetylcholine receptor M2 (Homo sapiens) (UniProt P08172)
# T1 sequence (whole entry): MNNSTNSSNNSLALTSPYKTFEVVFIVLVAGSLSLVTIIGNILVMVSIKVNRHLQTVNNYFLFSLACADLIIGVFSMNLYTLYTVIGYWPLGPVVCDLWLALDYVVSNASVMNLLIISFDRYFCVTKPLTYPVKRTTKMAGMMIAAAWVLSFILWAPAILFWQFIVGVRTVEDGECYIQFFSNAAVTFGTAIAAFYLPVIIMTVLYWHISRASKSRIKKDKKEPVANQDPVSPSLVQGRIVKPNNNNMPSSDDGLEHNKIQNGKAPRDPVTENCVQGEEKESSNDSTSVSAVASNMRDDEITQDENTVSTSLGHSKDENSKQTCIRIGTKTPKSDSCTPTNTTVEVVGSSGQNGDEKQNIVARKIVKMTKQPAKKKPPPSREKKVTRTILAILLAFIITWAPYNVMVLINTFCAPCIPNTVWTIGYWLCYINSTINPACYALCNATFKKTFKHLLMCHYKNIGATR
# [2] = molecular target: Homeodomain-interacting protein kinase 3 (Homo sapiens) (UniProt Q9H422); test: Inhibition of HIPK3(h) at 10.0 µM in the Eurofins Kinase panel
# [3] = molecular target: Serine/threonine-protein kinase TAO2 (Homo sapiens) (UniProt Q9UL54); test: Inhibition of TAO2(h) at 10.0 µM in the Eurofins Kinase panel
# [4] = molecular target: Beta-2 adrenergic receptor (Homo sapiens) (UniProt P07550)
# [5] = molecular target: Interleukin-1 receptor-associated kinase 4 (Homo sapiens) (UniProt Q9NWZ3); test: Inhibition of IRAK4(h) at 10.0 µM in the Eurofins Kinase panel
# Chain of Interleukin-1 receptor-associated kinase 4 (Homo sapiens) (Q9NWZ3 whole entry): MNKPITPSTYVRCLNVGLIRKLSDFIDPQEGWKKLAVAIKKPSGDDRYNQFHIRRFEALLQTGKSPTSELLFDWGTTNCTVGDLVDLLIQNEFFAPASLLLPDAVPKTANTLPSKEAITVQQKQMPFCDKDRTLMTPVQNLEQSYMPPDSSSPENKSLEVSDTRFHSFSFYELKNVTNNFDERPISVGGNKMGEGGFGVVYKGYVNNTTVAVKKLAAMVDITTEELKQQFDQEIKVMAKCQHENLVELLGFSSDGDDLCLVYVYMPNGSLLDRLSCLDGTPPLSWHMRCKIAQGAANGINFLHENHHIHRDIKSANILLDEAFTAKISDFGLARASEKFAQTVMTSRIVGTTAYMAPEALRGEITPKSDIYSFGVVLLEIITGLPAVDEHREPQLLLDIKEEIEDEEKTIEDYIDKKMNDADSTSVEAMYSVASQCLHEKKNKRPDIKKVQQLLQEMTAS
# [6] = molecular target: Phosphatidylinositol 5-phosphate 4-kinase type-2 alpha (Homo sapiens) (UniProt P48426); test: Inhibition of PIP4K2a(h) at 10.0 µM in the Eurofins Kinase panel
# Chain of Phosphatidylinositol 5-phosphate 4-kinase type-2 alpha (Homo sapiens) (P48426 whole entry): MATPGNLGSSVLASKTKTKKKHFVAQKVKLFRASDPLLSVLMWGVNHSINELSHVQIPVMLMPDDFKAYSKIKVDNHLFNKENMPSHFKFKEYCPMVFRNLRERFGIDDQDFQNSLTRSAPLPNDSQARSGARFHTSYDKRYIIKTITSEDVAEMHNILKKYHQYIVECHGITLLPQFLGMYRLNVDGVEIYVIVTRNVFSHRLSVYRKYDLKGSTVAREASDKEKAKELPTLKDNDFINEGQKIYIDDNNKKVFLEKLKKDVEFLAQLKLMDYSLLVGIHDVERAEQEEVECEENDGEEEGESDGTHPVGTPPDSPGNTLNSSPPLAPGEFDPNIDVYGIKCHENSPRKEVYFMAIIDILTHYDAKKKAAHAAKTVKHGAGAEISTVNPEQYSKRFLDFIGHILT
# [7] = molecular target: Tyrosine-protein kinase Lyn (Homo sapiens) (UniProt P07948); test: Inhibition of Lyn(h) at 10.0 µM in the Eurofins Kinase panel
# [8] = molecular target: Serine/threonine-protein kinase A-Raf (Homo sapiens) (UniProt P10398); test: Inhibition of A-Raf(h) at 10.0 µM in the Eurofins Kinase panel
# Chain of Serine/threonine-protein kinase A-Raf (Homo sapiens) (P10398 whole entry): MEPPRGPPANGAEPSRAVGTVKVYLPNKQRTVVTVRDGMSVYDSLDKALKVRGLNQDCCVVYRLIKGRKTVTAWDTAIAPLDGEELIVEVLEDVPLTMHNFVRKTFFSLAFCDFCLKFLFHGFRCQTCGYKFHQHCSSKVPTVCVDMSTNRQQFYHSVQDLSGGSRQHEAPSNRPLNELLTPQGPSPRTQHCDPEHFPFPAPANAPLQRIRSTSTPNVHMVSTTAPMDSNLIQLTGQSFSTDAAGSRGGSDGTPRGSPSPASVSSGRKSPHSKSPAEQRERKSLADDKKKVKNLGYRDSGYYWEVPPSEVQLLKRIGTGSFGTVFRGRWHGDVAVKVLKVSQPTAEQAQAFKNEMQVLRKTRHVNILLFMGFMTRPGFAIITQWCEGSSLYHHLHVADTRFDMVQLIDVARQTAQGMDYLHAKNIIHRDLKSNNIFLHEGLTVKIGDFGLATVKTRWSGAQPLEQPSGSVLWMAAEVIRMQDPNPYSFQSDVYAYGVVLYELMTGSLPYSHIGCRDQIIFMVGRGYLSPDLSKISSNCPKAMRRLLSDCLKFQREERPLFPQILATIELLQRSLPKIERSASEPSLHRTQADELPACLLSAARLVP
# [9] = molecular target: Serine/threonine-protein kinase 33 (Homo sapiens) (UniProt Q9BYT3); test: Inhibition of STK33(h) at 10.0 µM in the Eurofins Kinase panel
# [10] = molecular target: Muscarinic acetylcholine receptor M3 (Homo sapiens) (UniProt P20309)
# [11] = molecular target: 5-hydroxytryptamine receptor 2B (Homo sapiens) (UniProt P41595)
# Chain of 5-hydroxytryptamine receptor 2B (Homo sapiens) (P41595 whole entry): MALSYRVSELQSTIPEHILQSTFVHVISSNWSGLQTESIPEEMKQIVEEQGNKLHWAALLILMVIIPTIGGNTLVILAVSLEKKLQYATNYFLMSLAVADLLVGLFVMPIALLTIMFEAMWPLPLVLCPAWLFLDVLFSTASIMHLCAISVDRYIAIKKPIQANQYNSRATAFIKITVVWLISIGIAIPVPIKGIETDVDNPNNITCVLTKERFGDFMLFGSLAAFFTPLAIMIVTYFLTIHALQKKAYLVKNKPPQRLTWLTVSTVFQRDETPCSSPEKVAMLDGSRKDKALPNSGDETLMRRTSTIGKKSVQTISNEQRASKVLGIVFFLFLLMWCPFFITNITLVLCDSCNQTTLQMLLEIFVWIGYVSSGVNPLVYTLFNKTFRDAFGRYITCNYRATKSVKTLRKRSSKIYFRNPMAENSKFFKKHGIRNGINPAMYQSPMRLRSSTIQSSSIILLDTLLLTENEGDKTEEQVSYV
# [12] = molecular target: D(3) dopamine receptor (Homo sapiens) (UniProt P35462)
# [13] = molecular target: Testis-specific serine/threonine-protein kinase 2 (Homo sapiens) (UniProt Q96PF2); test: Inhibition of TSSK2(h) at 10.0 µM in the Eurofins Kinase panel
# [14] = molecular target: Histamine H1 receptor (Homo sapiens) (UniProt P35367)
# Chain of Histamine H1 receptor (Homo sapiens) (P35367 whole entry): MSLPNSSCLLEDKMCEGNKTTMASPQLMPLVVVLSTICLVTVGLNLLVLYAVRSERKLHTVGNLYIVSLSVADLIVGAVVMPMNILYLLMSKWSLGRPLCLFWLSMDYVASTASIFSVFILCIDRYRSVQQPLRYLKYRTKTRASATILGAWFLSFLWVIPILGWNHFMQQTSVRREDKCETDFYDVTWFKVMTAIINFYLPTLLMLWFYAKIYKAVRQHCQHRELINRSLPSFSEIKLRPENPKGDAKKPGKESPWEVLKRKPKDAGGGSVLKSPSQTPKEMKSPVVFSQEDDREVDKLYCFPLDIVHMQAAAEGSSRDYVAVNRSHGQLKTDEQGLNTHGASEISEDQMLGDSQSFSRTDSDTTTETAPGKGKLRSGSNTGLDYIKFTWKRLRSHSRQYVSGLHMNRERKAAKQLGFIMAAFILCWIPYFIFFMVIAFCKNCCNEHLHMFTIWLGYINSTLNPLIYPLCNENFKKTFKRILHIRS
# [15] = molecular target: Focal adhesion kinase 1 (Homo sapiens) (UniProt Q05397); test: Inhibition of FAK(h) at 10.0 µM in the Eurofins Kinase panel
# [16] = molecular target: Calcium/calmodulin-dependent protein kinase kinase 1 (Homo sapiens) (UniProt Q8N5S9); test: Inhibition of CaMKK1(h) at 10.0 µM in the Eurofins Kinase panel
# [17] = molecular target: Protein kinase C eta type (Homo sapiens) (UniProt P24723); test: Inhibition of PKCeta(h) at 10.0 µM in the Eurofins Kinase panel
# Chain of Protein kinase C eta type (Homo sapiens) (P24723 whole entry): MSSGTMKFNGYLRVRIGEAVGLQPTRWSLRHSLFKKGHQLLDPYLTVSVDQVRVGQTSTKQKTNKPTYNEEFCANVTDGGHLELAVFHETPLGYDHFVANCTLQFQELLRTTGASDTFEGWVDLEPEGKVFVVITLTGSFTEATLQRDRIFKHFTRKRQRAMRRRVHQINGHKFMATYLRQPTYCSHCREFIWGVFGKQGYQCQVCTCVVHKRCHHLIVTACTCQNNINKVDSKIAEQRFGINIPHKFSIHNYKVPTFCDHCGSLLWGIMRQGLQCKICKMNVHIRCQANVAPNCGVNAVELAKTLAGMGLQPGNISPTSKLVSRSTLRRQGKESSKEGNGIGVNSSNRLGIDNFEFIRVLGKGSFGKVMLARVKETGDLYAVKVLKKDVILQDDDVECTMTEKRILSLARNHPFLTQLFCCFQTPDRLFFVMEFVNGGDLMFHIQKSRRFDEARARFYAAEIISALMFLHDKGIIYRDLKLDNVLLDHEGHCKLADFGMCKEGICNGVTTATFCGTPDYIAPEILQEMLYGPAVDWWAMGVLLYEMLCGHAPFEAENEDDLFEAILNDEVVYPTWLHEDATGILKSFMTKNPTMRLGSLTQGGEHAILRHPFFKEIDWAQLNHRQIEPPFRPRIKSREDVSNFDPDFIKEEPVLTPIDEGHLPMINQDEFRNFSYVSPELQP
# [18] = molecular target: Serine/threonine-protein kinase mTOR (Homo sapiens) (UniProt P42345); test: Inhibition of mTOR(h) at 10.0 µM in the Eurofins Kinase panel
# [19] = molecular target: T2, cGMP-dependent protein kinase 1 (Homo sapiens) (UniProt Q13976); test: Inhibition of PKG1beta(h) at 10.0 µM in the Eurofins Kinase panel
# T2 sequence (whole entry): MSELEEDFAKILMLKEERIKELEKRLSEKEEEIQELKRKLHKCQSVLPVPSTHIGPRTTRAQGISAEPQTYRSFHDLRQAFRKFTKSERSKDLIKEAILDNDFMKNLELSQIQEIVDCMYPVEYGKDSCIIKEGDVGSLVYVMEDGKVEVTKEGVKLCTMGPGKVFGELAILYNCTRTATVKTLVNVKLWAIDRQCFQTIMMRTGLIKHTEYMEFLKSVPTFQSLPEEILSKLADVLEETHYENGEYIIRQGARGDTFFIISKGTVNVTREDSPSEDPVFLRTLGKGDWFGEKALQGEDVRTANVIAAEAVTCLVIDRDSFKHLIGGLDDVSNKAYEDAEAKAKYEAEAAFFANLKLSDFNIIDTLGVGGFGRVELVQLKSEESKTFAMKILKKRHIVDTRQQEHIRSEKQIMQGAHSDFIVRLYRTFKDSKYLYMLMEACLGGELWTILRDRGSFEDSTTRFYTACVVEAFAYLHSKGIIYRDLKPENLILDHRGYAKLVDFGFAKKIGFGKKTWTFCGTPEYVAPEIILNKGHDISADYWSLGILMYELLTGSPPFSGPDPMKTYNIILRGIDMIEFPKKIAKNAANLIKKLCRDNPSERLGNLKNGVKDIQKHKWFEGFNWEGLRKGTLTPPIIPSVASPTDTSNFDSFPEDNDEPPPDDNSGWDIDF
# [20] = molecular target: Delta-type opioid receptor (Homo sapiens) (UniProt P41143)
# [21] = molecular target: Dual specificity protein kinase CLK2 (Homo sapiens) (UniProt P49760); test: Inhibition of CLK2(h) at 10.0 µM in the Eurofins Kinase panel
# [22] = molecular target: Serine/threonine-protein kinase PLK1 (Homo sapiens) (UniProt P53350); test: Inhibition of Plk1(h) at 10.0 µM in the Eurofins Kinase panel
# [23] = molecular target: Glutamate NMDA receptor (Rattus norvegicus) (UniProt P35439+Q00959+Q00960+Q00961+Q62645+Q8VHN2+Q9R1M7)
# [24] = molecular target: Serine/threonine-protein kinase SBK1 (Homo sapiens) (UniProt Q52WX2); test: Inhibition of SBK1(h) at 10.0 µM in the Eurofins Kinase panel
# [25] = molecular target: Transcription initiation factor TFIID subunit 1-like (Homo sapiens) (UniProt Q8IZX4); test: Inhibition of TAF1L(h) at 10.0 µM in the Eurofins Kinase panel
# Chain of Transcription initiation factor TFIID subunit 1-like (Homo sapiens) (Q8IZX4 whole entry): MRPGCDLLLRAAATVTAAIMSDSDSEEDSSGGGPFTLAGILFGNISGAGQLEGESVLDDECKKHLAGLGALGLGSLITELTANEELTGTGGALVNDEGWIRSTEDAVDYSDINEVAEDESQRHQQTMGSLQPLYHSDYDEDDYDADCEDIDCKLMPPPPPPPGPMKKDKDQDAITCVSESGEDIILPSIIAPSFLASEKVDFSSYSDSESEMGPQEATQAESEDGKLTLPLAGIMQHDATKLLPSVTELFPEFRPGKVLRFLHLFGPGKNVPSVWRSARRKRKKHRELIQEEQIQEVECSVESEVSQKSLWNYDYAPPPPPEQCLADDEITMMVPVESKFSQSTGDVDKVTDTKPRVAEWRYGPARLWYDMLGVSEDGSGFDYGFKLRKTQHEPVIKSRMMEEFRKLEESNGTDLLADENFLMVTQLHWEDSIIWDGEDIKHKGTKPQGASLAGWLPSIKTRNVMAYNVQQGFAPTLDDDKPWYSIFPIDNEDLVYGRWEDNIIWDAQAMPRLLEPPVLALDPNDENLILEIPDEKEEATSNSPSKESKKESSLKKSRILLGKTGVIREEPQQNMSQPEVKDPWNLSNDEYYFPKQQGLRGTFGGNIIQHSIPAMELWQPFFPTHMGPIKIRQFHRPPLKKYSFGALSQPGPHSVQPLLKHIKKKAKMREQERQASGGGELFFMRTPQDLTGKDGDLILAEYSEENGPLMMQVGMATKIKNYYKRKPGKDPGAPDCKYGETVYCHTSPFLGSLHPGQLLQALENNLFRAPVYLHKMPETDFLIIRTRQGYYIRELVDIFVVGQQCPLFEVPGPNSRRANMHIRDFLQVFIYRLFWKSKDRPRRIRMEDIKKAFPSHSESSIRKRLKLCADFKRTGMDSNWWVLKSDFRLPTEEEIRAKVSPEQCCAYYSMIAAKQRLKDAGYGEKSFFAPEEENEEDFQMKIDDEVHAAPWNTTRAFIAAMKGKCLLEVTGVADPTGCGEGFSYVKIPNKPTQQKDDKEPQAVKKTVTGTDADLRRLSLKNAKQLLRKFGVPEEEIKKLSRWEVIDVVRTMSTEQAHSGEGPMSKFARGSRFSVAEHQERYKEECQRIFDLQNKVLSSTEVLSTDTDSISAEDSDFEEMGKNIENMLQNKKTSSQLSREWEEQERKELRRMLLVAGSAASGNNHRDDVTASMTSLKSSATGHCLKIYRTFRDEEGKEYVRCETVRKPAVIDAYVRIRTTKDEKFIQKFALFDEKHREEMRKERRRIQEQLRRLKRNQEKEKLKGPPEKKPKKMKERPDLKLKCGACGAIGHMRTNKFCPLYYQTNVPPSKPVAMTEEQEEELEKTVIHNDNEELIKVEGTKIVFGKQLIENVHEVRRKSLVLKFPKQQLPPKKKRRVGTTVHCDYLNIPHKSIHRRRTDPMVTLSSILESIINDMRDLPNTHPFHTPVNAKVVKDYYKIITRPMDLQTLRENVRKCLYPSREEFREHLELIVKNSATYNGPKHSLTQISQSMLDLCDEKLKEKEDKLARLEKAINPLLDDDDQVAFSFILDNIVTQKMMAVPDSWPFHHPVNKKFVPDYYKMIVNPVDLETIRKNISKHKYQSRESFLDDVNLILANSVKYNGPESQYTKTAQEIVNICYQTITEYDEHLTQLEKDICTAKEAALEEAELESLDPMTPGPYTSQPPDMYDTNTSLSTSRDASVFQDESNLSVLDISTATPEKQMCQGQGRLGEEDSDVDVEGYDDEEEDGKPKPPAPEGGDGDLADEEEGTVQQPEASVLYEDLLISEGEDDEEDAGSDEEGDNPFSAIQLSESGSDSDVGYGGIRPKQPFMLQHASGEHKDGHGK
# [26] = molecular target: Histamine H1 receptor (Homo sapiens) (UniProt P35367); remark: listed apart in the source
Compound,inhibition [1] [%],inhibition [2] [%],inhibition [3] [%],inhibition [4] [%],inhibition [5] [%],inhibition [6] [%],inhibition [7] [%],inhibition [8] [%],inhibition [9] [%],inhibition [10] [%],inhibition [11] [%],inhibition [12] [%],inhibition [13] [%],inhibition [14] [%],inhibition [15] [%],inhibition [16] [%],inhibition [17] [%],inhibition [18] [%],inhibition [19] [%],inhibition [20] [%],further results
O=c1n(Cc2cncn2-c2cccc(Cl)c2)nc(-c2ccc(Cl)cc2)n1C[C@H](O)C(F)(F)F,17,2.57,-6.37,0,-1.29,-2.76,-1.91,2.57,6.15,4,7.98,-8,2.9,9,-5.35,1.19,10.8,5.25,-1.12,2,inhibition [21]: -2.19%; inhibition [22]: -0.49%; inhibition [23]: -8%; inhibition [24]: 0.97%; inhibition [25]: -2.39%; inhibition [26]: 28.5%
C[C@H](O)c1nc(Cn2nc(-c3ccc(Cl)cc3)n(C[C@H](O)C(F)(F)F)c2=O)nn1-c1cccc(Cl)c1 [PECAVAPTAN],7,3.3,-4.1,9,3.56,-0.83,-5.89,1.05,6.36,8,13.1,26,-2.02,-1,-3.02,-5.02,4.39,-1.45,1.79,4,inhibition [21]: -2.64%; inhibition [22]: -2.91%; inhibition [23]: 2%; inhibition [24]: -2.61%; inhibition [25]: 2.81%; inhibition [26]: 12%
